From patent US20230416239A1, “COMPOUNDS AND METHODS FOR TREATING A CYTOKINE-MEDIATED DISEASE” (CONSERVATOIRE NATIONAL DES ARTS ET MÉTIERS, priority 2020, published 2023)

What was measured:
[1] = molecular target: IL-6 (Homo sapiens, UniProt P05231); assay: Immunoassay binding test, IL-6 (gp130 receptor, IL-6Ra present); conditions: IL-6Ra 200 ng/ml
Summary of the method: (§1)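 Detection used OD at 450 nm after biotinylated anti-cytokine antibody and avidin-HRP were applied to receptor-coated wells. Those wells had received, overnight at 4 °C, cytokine preincubated 2 h at 37 °C with compound at final 100 to 0.78 μM. IL-6 mixtures further contained IL-6Ra at 200 ng/ml final.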

[2] = molecular target: IL-13 (Homo sapiens, UniProt P35225); assay: Immunoassay binding test, IL-13; conditions: for IC50: IL-13 400 ng/ml, receptor 100 ng/ml, read-out: BINDING IL13 IC50
Summary of the method: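 Receptor-coated plates; compounds (100 to 0.78 μM final) preincubated 2 h at 37° C with fixed cytokine, then bound to receptor overnight at 4° C. Bound cytokine detected with biotinylated anti-cytokine antibody and avidin-HRP, OD 450 nm.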

[3] = molecular target: TNFα (Homo sapiens, UniProt P01375); assay: Immunoassay binding test, TNFa; conditions: compounds 100 to 0.78 μM; TNFα 10 ng/ml, receptor 100 ng/ml; read-out: BINDING TNF IC50
Summary of the method: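 ELISA-type binding test: receptor-coated plates blocked with 2% BSA, then cytokine (six-point dilution series) preincubated 2 h at 37 °C and bound overnight at 4 °C. Detection used biotinylated anti-cytokine antibody and avidin-HRP, read as OD at 450 nm. For IL-6, IL-6Ra was present at 200 ng/ml final.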

[4] = molecular target: T1, IL-4 (Homo sapiens, UniProt P05112); assay: Immunoassay binding test, IL-4; conditions: for IC50: IL-4 400 ng/ml, receptor 100 ng/ml, read-out: BINDING IL4 IC50
T1 sequence (P05112 25-153): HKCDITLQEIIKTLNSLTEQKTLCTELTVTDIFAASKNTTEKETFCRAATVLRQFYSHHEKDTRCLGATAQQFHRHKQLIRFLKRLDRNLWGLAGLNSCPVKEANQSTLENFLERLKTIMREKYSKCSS
Summary of the method: as §1

[5] = molecular target: TNFa/TNFRI interaction (Homo sapiens, UniProt P01375); assay: TNFa/TNFRI interaction displacement test; assay type: binding; conditions: compounds at 50 μM; human TNFRI 100 ng/ml
Summary of the method: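 Plates coated overnight at 4° C with human TNFRI (100 ng/ml) and blocked with 2% BSA, then test mixtures were incubated overnight at 4° C. Bound cytokine detected with biotinylated anti-cytokine antibody (2 h, 37° C) and avidin-HRP, read as OD at 450 nm.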

Sequence of TNFa/TNFRI interaction (P01375 77-233 limits assumed): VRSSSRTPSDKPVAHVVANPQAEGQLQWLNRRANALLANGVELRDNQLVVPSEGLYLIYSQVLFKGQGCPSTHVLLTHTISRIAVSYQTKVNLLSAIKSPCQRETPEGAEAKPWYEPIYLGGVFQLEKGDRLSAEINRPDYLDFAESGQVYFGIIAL
Sequence of TNFα (P01375 77-233 limits assumed, species assumed): as the sequence (P01375 77-233 limits assumed) above
Sequence of IL-6 (P05231 30-212, species assumed): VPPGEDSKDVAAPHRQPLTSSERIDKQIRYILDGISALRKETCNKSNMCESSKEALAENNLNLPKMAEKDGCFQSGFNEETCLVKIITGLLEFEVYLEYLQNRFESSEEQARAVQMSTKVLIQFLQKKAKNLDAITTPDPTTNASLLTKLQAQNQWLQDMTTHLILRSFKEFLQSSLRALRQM
Sequence of IL-13 (P35225 25-146, species assumed): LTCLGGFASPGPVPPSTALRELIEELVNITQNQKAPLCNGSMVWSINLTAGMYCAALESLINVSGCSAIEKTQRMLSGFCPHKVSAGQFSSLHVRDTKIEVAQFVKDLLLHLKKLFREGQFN

| SMILES | BINDING IL6 % Neutra at 100 μM [1] | BINDING IL13 % Neutra at 100 μM [2] | IC50 [2] | IC50 [3] | BINDING IL4 % Neutra at 100 μM [4] | IC50 [4] | Displacement (%) [5] |
| --- | --- | --- | --- | --- | --- | --- | --- |
| CN1CCN(S(=O)(=O)n2cc(CN(CCCCN(C)C3CCCCC3)Cc3cccnc3F)c3ccccc32)CC1 [Compound 92] | 2% | 72.0% | > 50 µM | 8.4 µM | 92.3% | 7.7 µM | 117% |
| CN(CCCCN(Cc1cccnc1F)Cc1cn(S(=O)(=O)c2ccccc2)c2ncccc12)C1CCCCC1 [Compound 94, N1-cyclohexyl-N4-((2-fluoropyridin-3-yl)methyl)-N1-methyl-N4-((1-(phenylsulfonyl)-1H-pyrrolo[2,3-b]pyridin-3-yl)methyl)butane-1,4-diamine] | 0% | 75.2% | > 50 µM | 19 µM | 95.8% | 34.5 µM | 101% |
| CN(CCCCN(Cc1cccnc1F)Cc1cn(C)c2ccccc12)C1CCCCC1 [Compound 95] | 0% | 0% | – | > 50 µM | 75.3% | > 50 µM | 16% |
| CCn1cc(CN(CCCCN(C)C2CCCCC2)Cc2cccnc2F)c2ccccc21 [Compound 96] | 1% | 0% | – | > 50 µM | 74.5% | 62.3 µM | 26% |
| CCCN(CCOCCN(Cc1cccnc1F)Cc1cn(S(=O)(=O)c2ccccc2)c2ccccc12)C1CCCCC1 [Compound 97, N-(2-(2-(((2-fluoropyridin-3-yl)methyl) ((1-(phenylsulfonyl)-1H-indol-3-yl)methyl)amino)ethoxy)ethyl)-N-propylcyclohexanamine] | 0% | 73.9% | > 50 µM | 10.5 µM | 94.6% | 6.6 µM | 153% |

Further molecules by falling IC50 [3], results first:

| BINDING IL6 % Neutra at 100 μM [1] | BINDING IL13 % Neutra at 100 μM [2] | IC50 [2] | IC50 [3] | BINDING IL4 % Neutra at 100 μM [4] | IC50 [4] | Displacement (%) [5] | SMILES |
| --- | --- | --- | --- | --- | --- | --- | --- |
| 0% | 35.8% | > 50 µM | 27.5 µM | 87.5% | 16.4 µM | 87% | CN(CCCCN(Cc1ccn(S(=O)(=O)c2ccccc2)c1)Cc1cccnc1F)C1CCCCC1 [Compound 91, N1-cyclohexyl-N4-((2-fluoropyridin-3-yl)methyl)-N1-methyl-N4-((1-(phenylsulfonyl)-1H-pyrrol-3-yl)methyl)butane-1,4-diamine] |
| 0% | 91.3% | 7.8 µM | 11.2 µM | 89.8% | 2.8 µM | 160% | CCN(CCOCCN(Cc1cccnc1F)Cc1cn(S(=O)(=O)c2ccccc2)c2ccccc12)C1CCCCC1 [Compound 93, N-ethyl-N-(2-(2-(((2-fluoropyridin-3-yl)methyl)((1-(phenylsulfonyl)-1H-indol-3-yl)methyl)amino)ethoxy)ethyl)cyclohexanamine] |
| 0% | 90.2% | > 50 µM | 9.9 µM | 93.4% | 6.2 µM | 127% | CCCN(CCCCN(Cc1cccnc1F)Cc1cn(S(=O)(=O)c2ccccc2)c2ccccc12)C1CCCC1 [Compound 98] |
| 0% | 91.8% | > 50 µM | 8.2 µM | 87.4% | 4.4 µM | 173% | CCCCN(CCOCCN(Cc1cccnc1F)Cc1cn(S(=O)(=O)c2ccccc2)c2ccccc12)C1CCCCC1 [Compound 99, N-butyl-N-(2-(2-(((2-fluoropyridin-3-yl)methyl)((1-(phenylsulfonyl)-1H-indol-3-yl)methyl)amino)ethoxy)ethyl)cyclohexanamine] |
